Our source for the inhibition and Activity values is ChEMBL document CHEMBL4482319, “Targeting cyb5r3” (2016).

Experiment [1] has as its target T1, NADH-cytochrome b5 reductase (Homo sapiens) (UniProt P00387).
T1 sequence (whole entry): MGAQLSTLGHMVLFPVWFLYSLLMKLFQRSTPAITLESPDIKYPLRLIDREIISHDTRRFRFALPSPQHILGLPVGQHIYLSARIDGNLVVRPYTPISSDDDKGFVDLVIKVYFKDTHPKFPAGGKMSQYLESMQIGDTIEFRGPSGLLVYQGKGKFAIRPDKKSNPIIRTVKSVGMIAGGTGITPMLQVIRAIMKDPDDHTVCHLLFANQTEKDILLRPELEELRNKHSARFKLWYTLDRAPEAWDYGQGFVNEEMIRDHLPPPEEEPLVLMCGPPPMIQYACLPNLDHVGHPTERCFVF
Nature of the experiment: Inhibition of Cyb5R3 (unknown origin) expressed in HEK293 cells at 21.86 uM incubated for 24 hrs in presence of potassium ferricyanide and NADH by spectrophotometric assay. Type of experiment: cell-based.

Experiment [2] has as its system Mus musculus. Nature of the experiment: Induction of hypertension in C57B1/6 mouse assessed as increase in mean arterial pressure at 10 mg/kg/day dosed via osmotic mini pumps for 14 days. Type of experiment: functional, organism-based.
The target in experiment [3] is T2, NADH-cytochrome b5 reductase 3 (Rattus norvegicus) (UniProt P20070).
T2 sequence (whole entry): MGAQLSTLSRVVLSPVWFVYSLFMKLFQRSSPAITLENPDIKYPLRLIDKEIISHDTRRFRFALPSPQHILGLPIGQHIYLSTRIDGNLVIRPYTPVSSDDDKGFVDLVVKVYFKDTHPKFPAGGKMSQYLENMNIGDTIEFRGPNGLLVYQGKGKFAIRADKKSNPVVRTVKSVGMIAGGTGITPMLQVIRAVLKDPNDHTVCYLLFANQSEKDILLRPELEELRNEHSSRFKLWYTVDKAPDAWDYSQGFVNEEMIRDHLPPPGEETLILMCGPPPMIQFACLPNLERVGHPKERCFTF
In words: Inhibition of Cyb5R3 in rat aortic VSMs assessed as reduction in decrease in basal cGMP levels.

Experiment [4] has as its system Mus musculus. In words: Induction of hypertension in C57B1/6 mouse assessed as increase in systolic pressure at 10 mg/kg/day dosed via osmotic mini pumps for 14 days. Type of experiment: functional, organism-based.
Experiment [5] deals with T2, NADH-cytochrome b5 reductase 3 (Rattus norvegicus). Nature of the experiment: Inhibition of Cyb5R3 in rat aortic VSMs assessed as reduction in decrease in sGC protein by Western blot analysis. The note with it: concentration not given here. (In general: A western blot detects proteins with antibodies after separation by electrophoresis.)
Experiment [6] relates to Mus musculus. Nature of the experiment: Induction of hypertension in C57B1/6 mouse assessed as increase in diastolic pressure at 10 mg/kg/day dosed via osmotic mini pumps for 14 days. It counts as functional, organism-based.
The target of experiment [7] is T2, NADH-cytochrome b5 reductase 3 (Rattus norvegicus). Nature of the experiment: Inhibition of Cyb5R3 in rat thoracodorsal arteries assessed as inhibition of DETA NONOate-induced response incubated for 24 hrs by pressure myography.
For experiment [8] the target is unchanged. In words: Inhibition of Cyb5R3 in DETA NONOate-stimulated rat aortic VSMs assessed as reduction in NO-induced cGMP production in presence of sGC activator Bay 58-2667.
The target is the same in experiment [9]. In words: Inhibition of Cyb5R3 in rat thoracodorsal arteries assessed as inhibition of DETA NONOate-induced response incubated for 24 hrs in presence of sGC activator Bay 58-2667 by pressure myography.
The species named for the next experiment is Homo sapiens. Nature of the experiment: Reduction in systolic blood pressure in patient with acute decompensated heart failure during phase II clinical trial. Type of experiment: functional.

SMILES strings stand for the structures. Active and inactive are the calls of the source. The rule behind the calls is not given here. Some results are limits rather than exact numbers.

Turning to `Oc1cc(CSc2ccccc2)nc(S)n1`, the inhibition (commonly the change of the read-out against control, counted positive when it falls) in experiment [1] is over 80%.

Consider `O=c1cc(CS[C@@H]2Nc3ccccc3O2)[nH]c(=S)[nH]1`, for which the result with Mus musculus [2], with Mus musculus [4] and in the experiment with Mus musculus [6] was Active. For the same compound, the inhibition entry in [3] and in experiment [7] was “Active” in each case. Besides, the inhibition in [5] was under 75%. Besides, the inhibition entry in [8] and in [9] was “inactive” in each case.

As for `O=C(O)CCCCN(CCc1ccccc1OCc1ccc(CCc2ccccc2)cc1)Cc1ccc(C(=O)O)cc1`, the Activity in the experiment filed under Homo sapiens worked out at 16.6 mmHg.
